Experimental data reported in US8987287B2, “Spirocyclic morphinans and their use” (Purdue Pharma L.P., priority 2012, dated 2015).
Like-named read-outs stand apart in the source and are kept apart here.

Experiments:
[1] = molecular target: T1, μ-opioid receptor (Homo sapiens (Human), UniProt P35372); assay: μ-opioid receptor radioligand ([3H]-diprenorphine) dose-displacement binding assay; settings: binding affinity, read-out: Opioid Receptor Ki (nM) μ
Procedure: μ-Opioid Receptor Binding Assay Procedures: Radioligand dose-displacement binding assays for μ-opioid receptors used 0.3 nM [^3H]-diprenorphine (Perkin Elmer, Shelton, Conn.), with […] membrane protein/well in a final volume of 500 μl binding buffer (10 mM MgCl2, 1 mM EDTA, 5% DMSO, 50 mM HEPES, pH 7.4). Reactions were carried out in the absence or presence of increasing concentrations of unlabeled naloxone. All reactions were conducted in 96-deep well polypropylene plates for 2 hours at room temperature. Binding reactions were terminated by rapid filtration onto 96-well Unifilter GF/C filter plates (Perkin Elmer, Shelton, Conn.), presoaked in 0.5% polyethylenimine using a 96-well tissue harvester (Perkin Elmer, Shelton, Conn.) followed by performing three filtration washes with 500 μl of ice-cold binding buffer. Filter plates were subsequently dried at 50° C. for 2-3 hours. BetaScint scintillation cocktail (Perkin Elmer, Shelton, Conn.) was added (50 μl/well), and plates were counted using a Packard Top-Count for 1 min/well. The data were analyzed using the one-site competition curve fitting functions in GraphPad PRISM™ v. 3.0 or higher (San Diego, Calif.), or an in-house function for one-site competition curve-fitting.
(§1) In TABLE 1, binding affinity of certain Compounds of the Invention to the μ-, δ- and κ-opioid receptors was determined as described above.

[2] = molecular target: T2, κ opioid receptor (Homo sapiens (Human), UniProt P41145); assay: κ-opioid receptor [35S]GTPγS functional assay, U-2 OS cells; format: biochemical; settings: for Emax: relative to U69,593, U-2 OS cells
[3] = molecular target: T1, μ-opioid receptor; assay: μ-opioid receptor [35S]GTPγS functional assay, HEK-293 or CHO cells; format: biochemical; settings: for Emax: relative to DAMGO, HEK-293 or CHO cells
Procedure: μ-Opioid Receptor Functional Assay Procedures: [^35S]GTPγS functional assays were conducted using freshly thawed μ-receptor membranes prepared in-house from a cell line expressing recombinant μ opioid receptor in a HEK-293, CHO or U-2 OS cell background, or purchased from a commercial source (Perkin Elmer, Shelton, Conn.; or DiscovRx, Fremont, Calif.). Assay reactions were prepared by sequentially adding the following reagents to binding buffer (100 mM NaCl, 10 mM MgCl2, 20 mM HEPES, pH 7.4) on ice (final concentrations indicated): membrane protein (0.026 mg/mL), saponin ([…]), GDP ([…]) and [^35S]GTPγS (0.20 nM; Perkin Elmer, Shelton, Conn.). The prepared membrane solution (190 μl/well) was transferred to 96-shallow well polypropylene plates containing 10 μl of 20× concentrated stock solutions of the agonist [D-Ala^2, N-methyl-Phe^4 Gly-ol^5]-enkephalin (DAMGO) prepared in dimethyl sulfoxide (DMSO). Plates were incubated for 30 min at about 25° C. with shaking. Reactions were terminated by rapid filtration onto 96-well Unifilter GF/B filter plates (Perkin Elmer, Shelton, Conn.) using a 96-well tissue harvester (Perkin Elmer, Shelton, Conn.) followed by three filtration washes with 200 μl of ice-cold wash buffer (10 mM NaH2PO4, 10 mM Na2HPO4, pH 7.4). Filter plates were subsequently dried at 50° C. for 2-3 hours. BetaScint scintillation cocktail (Perkin Elmer, Shelton, Conn.) was added (50 μl/well) and plates were counted using a Packard Top-Count for 1 min/well. Data were analyzed using the sigmoidal dose-response curve fitting functions in GraphPad PRISM v. 3.0, or an in-house function for non-linear, sigmoidal dose-response curve-fitting.
μ-Opioid Receptor Functional Data: μ GTP EC50 is the concentration of a compound providing 50% of the maximal response for the compound at a μ-opioid receptor.
μ GTP Emax (%) is the maximal effect elicited by a compound relative to the effect elicited by DAMGO, a standard μ agonist. Generally, the μ GTP Emax (%) value measures the efficacy of a compound to treat or prevent pain or other Conditions.
(§2) In TABLE 2, activity response of certain Compounds of the Invention to the μ-, δ- and κ-opioid receptors was determined as described above for functional assays using HEK-293 or CHO cells.

[4] = molecular target: T2, κ opioid receptor; assay: κ-opioid receptor radioligand ([3H]-U69,593) dose-displacement binding assay; settings: binding affinity
Procedure: κ-Opioid Receptor Binding Assay Procedures: Membranes from recombinantHEK-293 cells, CHO or U-2 OS cells expressing the recombinant human κ opioid receptor (κ) were prepared by lysing cells in ice cold hypotonic buffer (2.5 mM MgCl2, 50 mM HEPES, pH 7.4) (10 mL/10 cm dish) followed by homogenization with a tissue grinder/Teflon pestle. Membranes were collected by centrifugation at 30,000×g for 15 min at 4° C. and pellets were resuspended in hypotonic buffer to a final concentration of 1-3 mg/mL. Protein concentrations were determined using the BioRad protein assay reagent with bovine serum albumen as standard. Aliquots of κ receptor membranes were stored at −80° C.
Radioligand dose displacement assays used 0.4 nM [^3H]-U69,593 (GE Healthcare, Piscataway, N.J.; 40 Ci/mmole) with 15 μg membrane protein (recombinant κ opioid receptor expressed in HEK 293 cells; in-house prep) in a final volume of 200 μl binding buffer (5% DMSO, 50 mM Trizma base, pH 7.4). Non-specific binding was determined in the presence of 10 μM unlabeled naloxone or U69,593. All reactions were performed in 96-well polypropylene plates for 1 hour at a temperature of about 25° C. Binding reactions were terminated by rapid filtration onto 96-well Unifilter GF/C filter plates (Perkin Elmer, Shelton, Conn.) presoaked in 0.5% polyethylenimine (Sigma). Harvesting was performed using a 96-well tissue harvester (Perkin Elmer, Shelton, Conn.) followed by five filtration washes with 200 μl ice-cold binding buffer. Filter plates were subsequently dried at 50° C. for 1-2 hours. Fifty μl/well scintillation cocktail (Perkin Elmer, Shelton, Conn.) was added and plates were counted in a Packard Top-Count for 1 min/well.
as §1

[5] = molecular target: T2, κ opioid receptor; assay: κ-opioid receptor [35S]GTPγS functional assay, HEK-293 or CHO cells; format: biochemical; settings: for Emax: relative to U69,593, HEK-293 or CHO cells
Procedure: κ-Opioid Receptor Functional Assay Procedures: Functional [^35S]GTPγS binding assays were conducted as follows. κ opioid receptor membrane solution was prepared by sequentially adding final concentrations of 0.026 μg/μl κ membrane protein (in-house), 10 μg/mL saponin, 3 μM GDP and 0.20 nM [^35S]GTPγS to binding buffer (100 mM NaCl, 10 mM MgCl2, 20 mM HEPES, pH 7.4) on ice. The prepared membrane solution (190 μl/well) was transferred to 96-shallow well polypropylene plates containing 10 μl of 20× concentrated stock solutions of agonist prepared in DMSO. Plates were incubated for 30 min at a temperature of about 25° C. with shaking. Reactions were terminated by rapid filtration onto 96-well Unifilter GF/B filter plates (Perkin Elmer, Shelton, Conn.) using a 96-well tissue harvester (Packard) and followed by three filtration washes with 200 μl ice-cold binding buffer (10 mM NaH2PO4, 10 mM Na2HPO4, pH 7.4). Filter plates were subsequently dried at 50° C. for 2-3 hours. Fifty μl/well scintillation cocktail (Perkin Elmer, Shelton, Conn.) was added and plates were counted in a Packard Top-Count for 1 min/well.
κ-Opioid Receptor Functional Data: κ GTP EC50 is the concentration of a compound providing 50% of the maximal response for the compound at a κ receptor.
κ GTP Emax (%) is the maximal effect elicited by a compound relative to the effect elicited by U69,593.
as §2

[6] = molecular target: T1, μ-opioid receptor; assay: μ-opioid receptor [35S]GTPγS functional assay, U-2 OS cells; format: biochemical; settings: for Emax: relative to DAMGO, U-2 OS cells
[7] = read-out: Opioid Receptor Ki (nM) κ

## CN1C(=O)NC(=O)[C@@]12CC[C@@]1(O)[C@H]3Cc4ccc(O)cc4[C@@]1(CCN3CC1CC1)C2 [Compound 63, (4S,4b′R,8a′S,9′R)-11′-(cyclopropylmethyl)-3′,8a′-dihydroxy-3-methyl-8′,8a′,9′,10′-tetrahydro-5′H,7′H-spiro[imidazolidine-4,6′-[9,4b](epiminoethano)phenantrene]-2,5-dione]
[1]
  Ki: 0.86 ± 0.11 nM
[2]
  EC50: 0.69 ± 0.025 nM
  Emax: 108%
[3]
  EC50: > 20000 nM
  Emax: 1%
[4]; [7]
  Ki: 0.3 ± 0.041 nM
[5]
  EC50: 3.53 ± 0.43 nM
  Emax: 74.7 ± 1.45%
[6]
  EC50: 0.97 ± 0.053 nM
  Emax: 14.3 ± 0.67%

## CCN1C(=O)NC(=O)[C@@]12CC[C@@]1(O)[C@H]3Cc4ccc(O)cc4[C@@]1(CCN3CC1CC1)C2 [Compound 49, (4S,4b′R,8a′S,9′R)-11′-(cyclopropylmethyl)-3-ethyl-3′,8a′-dihydroxy-8′,8a′,9′,10′-tetrahydro-5′H,7′H-spiro[imidazolidine-4,6′-[9,4b](epiminoethano)phenantrene]-2,5-dione]
[1]
  Ki: 2.28 ± 0.62 nM
[2]
  EC50: 1.82 ± 0.098 nM
  Emax: 111 ± 3.51%
[3]
  EC50: > 20000 nM
  Emax: 1%
[4]; [7]
  Ki: 0.47 ± 0.026 nM
[5]
  EC50: 6.63 ± 2.21 nM
  Emax: 59.3 ± 4.06%
[6]
  EC50: > 20000 nM
  Emax: 2.5%

## COc1ccc2c(c1)[C@]13CCN(CC4CC4)[C@H](C2)[C@]1(O)CC[C@@]1(C3)NC(=O)NC1=O [Compound 2, (4bR,4′S,8aS,9R)-11-(cyclopropylmethyl)-8a-hydroxy-3-methoxy-5,7,8,8a,9,10-hexahydrospiro[9,4b-(epiminoethano)phenanthrene-6,4′-imidazolidine]-2′,5′-dione]
[1]
  Ki: 9050 ± 895 nM
[3]
  EC50: 1950 ± 37.7 nM
  Emax: 31.3 ± 2.4%
[4]; [7]
  Ki: 130 ± 22.7 nM
[5]
  EC50: 2500 ± 556 nM
  Emax: 63 ± 1.53%

## COc1ccc2c(c1)[C@]13CCN[C@H](C2)[C@]1(O)CC[C@@]1(C3)NC(=O)NC1=O [Compound 12, (4bR,4′S,8aS,9R)-8a-hydroxy-3-methoxy-5,7,8,8a,9,10-hexahydrospiro[9,4b-(epiminoethano)phenanthrene-6,4′-imidazolidine]-2′,5′-dione]
[1]
  Ki: 14900 nM
[4]; bound given in μM, read-out: Opioid Receptor Ki κ
  Ki: > 20000 nM

## O=C1NC(=O)[C@@]2(CC[C@H]3[C@H]4Cc5ccc(O)cc5[C@@]3(CCN4CC3CC3)C2)N1 [Compound 7, (4bS,4′S,8aR,9R)-11-(cyclopropylmethyl)-3-hydroxy-5,7,8,8a,9,10-hexahydrospiro[9,4b-(epiminoethano)phenanthrene-6,4′-imidazolidine]-2′,5′-dione]
[1]
  Ki: 8.39 ± 2.72 nM
[3]
  EC50: 3.76 ± 0.41 nM
  Emax: 37 ± 4.04%
[4]; [7]
  Ki: 0.23 ± 0.05 nM
[5]
  EC50: 3.68 ± 0.99 nM
  Emax: 86.3 ± 2.19%
